Experimental data from patent publication US8168650B2, “Therapeutic uses of bicyclic ligands of sigma 2 receptor” (priority 2006, dated 2012).
Like-named read-outs stand apart in the source and are kept apart here.

Columns and labels:
σ2 receptor = biological target: T1, σ2 receptor (Rattus norvegicus, UniProt Q5U3Y7); assay: σ2 receptor binding assay, [3H]DTG or [3H]RHM-1; conditions: for σ1/σ2 Ratio: Ki for σ1/Ki for σ2
T1 construct: from tissue; host or cells: rat liver membrane homogenates
T1 sequence (Q5U3Y7 1-176): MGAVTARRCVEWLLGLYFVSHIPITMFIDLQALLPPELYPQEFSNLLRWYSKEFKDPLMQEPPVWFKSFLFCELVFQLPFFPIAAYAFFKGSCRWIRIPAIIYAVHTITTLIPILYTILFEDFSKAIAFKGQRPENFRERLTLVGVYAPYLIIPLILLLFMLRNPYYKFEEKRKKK
Procedure: (§1) In vitro binding studies were conducted in order to determine the affinity of the target compounds at σ1 and σ2 receptors.
(§2) In this example, test compounds were dissolved in N,N-dimethylformamide (DMF), dimethylsulfoxide (DMSO) or ethanol and then diluted in 50 mM Tris-HCl, pH 7.4 buffer containing 150 mM NaCl and 100 mM EDTA. Membrane homogenates were made from guinea pig brain for σ1 binding assays and rat liver for σ2 binding assays. Membrane homogenates were diluted with 50 mM Tris-HCl buffer, pH 8.0, and incubated at 25° C. in a total volume of 150 μL in 96-well plates with the radioligand and test compounds with concentrations ranging from 0.1 nM to 10 μM. After incubation was completed, the reactions were terminated by the addition of 150 μL of ice-cold wash buffer (10 mM Tris-HCl, 150 mM NaCl, pH 7.4) using a 96-channel transfer pipette (Fisher Scientific, Pittsburgh, Pa.), and the samples harvested and filtered rapidly through 96-well fiberglass filter plate (Millipore, Billerica, Mass.) that had been presoaked with 100 μL of 50 mM Tris-HCl buffer, pH 8.0, for 1 h. Each filter was washed three times with 200 μL of ice cold wash buffer.
(§3) Ki values were calculated using the method of Cheng and Prusoff20 and represent mean values±SEM.

EMT-6 cells [1] = assay: Cytotoxicity assay (MTS) in EMT-6 cells; type: cell-based, mouse
Procedure: Cell culture conditions. EMT-6 mouse breast tumor cells^39 were cultured in DMEM supplemented with 10% fetal bovine serum. The cells were maintained at 37° C. in a humidified incubator with a 5% CO2/95% air atmosphere.
In these experiments, a number of sigma ligands, having a wide range of affinities for σ1 and σ2 receptors, were evaluated for their efficacy to kill EMT-6 cells. […] Cells were incubated for 24 hours or 48 hours with various concentrations of the sigma ligands. Cytotoxicity and cell viability were quantified using the MTS assay.

[2] = system: MDA-MB-435 breast cancer cells; assay: Cytotoxicity assay (MTS) in MDA-MB-435 cells; type: cell-based; conditions: Homo sapiens
Procedure: Cytotoxicity assay. The cytotoxic effect of the sigma ligands on EMT-6 cells was measured using the MTS colorimetric assay. MTS is bioreduced by cells into a colored formazan product with an absorbance at 490 nm. The quantity of the products is directly proportional to the number of viable cells in the culture. The MTS assay was performed using the CellTiter96Aqueous One Solution Assay (Promega, Madison, Wis.) according to the manufacturer's protocol. Briefly, EMT-6 cells were seeded at 2×10^3/well in 96-well plates on the day prior to treatment with the sigma ligand. Each sigma ligand was first dissolved in DMSO, and then serially diluted to get the desired concentration. The final concentration of DMSO in the cell culture medium was no more than 0.5%. After a 24 hour or 48 hour treatment with the various sigma ligands, cell death was assessed as follows. The CellTiter 96 AQueous One Solution Reagent was added to each well, and the plate was incubated for 2 hours at 37° C. The plate was then read at 490 nm in a Victor 3 plate reader (PerkinElmer Life and Analytical Sciences, Shelton, Conn.).
In these experiments, sigma ligands WC-II-26, SV119 and RHM-I-138 were evaluated for their efficacy to kill human MDA-MB-435 breast cancer cells. Cells were treated and analyzed as described for EMT-6 cells in Example 33. In these experiments cells were incubated for 24 hours or 48 hours with various concentrations of the sigma ligands.

caspase-3/7 = assay: Caspase-3/7 whole cell assay in MDA-MB-435 cells; type: cell-based, human; conditions: MDA-MB-435, 24 h
Procedure: FIG. 8 illustrates activation of caspase-3/7 in EMT-6 cells treated with the sigma-2 selective ligands, WC-II-26, SV119, or RHM-I-138. EMT6 cells were treated for 24 h with concentrations of 40 μM. MDA-MB-435 cells were treated with varying concentrations of sigma-2 selective ligands for 24 h. The highest level of caspase-3/7 activity was detected after 24 h in the presence of 80 μM SV119, 80 μM WC-II-26, and 50 μM RHM-I-138. The data are the mean±1 SEM of three independent experiments. p<0.05; * compared to the control.
Detection of intracellular cellular caspase-3/7 activity. The activation of endogenous caspase-3/7 by the sigma ligands was measured using the CellProbe HT caspase-3/7 whole cell assay (Beckman Coulter, Fullerton, Calif.). The cell permeable, nonfluorescent bisamide substrate, Z-DEVD-R110, was added to the intact cells to detect apoptosis. Upon specific cleavage by caspase-3/7, Z-DEVD-R110 is converted to a fluorescent compound, and the fluorescent signal can be measured as follows. After adding the substrate, Z-DEVD-R110, to the cells treated with a sigma ligand, the plate was incubated for an additional 1.5-2 hour, and the resulting fluorescence measured using a Victor 3 microplate fluorometer at excitation and emission wavelengths of 485 nm and 535 nm, respectively.

EMT-6 cells [3] = assay: TUNEL staining of DNA fragmentation in EMT-6 cells (microscopy, flow cytometry); type: cell-based, mouse; conditions: for TUNEL positive cells (flow cytometry): untreated control 2%; for DNA fragmentation, TUNEL staining in nuclei (fluorescence microscopy): EMT-6, WC-II-26 40 μM 48 h, SV119 100 μM 16 h, RHM-I-138 40 μM 16 h
Procedure: Detection of apoptosis by fluorescence microscopy. The DNA fragmentation occurring during apoptosis was detected by the TUNEL staining method using the in situ cell death detection kit purchased from Roche Applied Science (Indianapolis, Ind.). Briefly, after treatment of EMT-6 cells with the sigma ligands, cells were fixed for 1 hour with 4% paraformaldehyde in phosphate buffered saline at room temperature and permeabilized with 0.1% Triton X-100 for 2 minutes on ice. The cells were then labeled by incubation with the TUNEL reaction mixture for 1 hour at 37° C. and analyzed using a Nikon inverted fluorescence microscope with a FITC filter.
Detection and quantification of apoptosis by flow cytometry. The early stages of apoptosis are characterized by translocation of phosphatidyl serine (PS) from the inner surface of the plasma membrane to the outer surface of the membrane. Annexin V, a protein with high affinity for PS, was used to detect the externalization of PS. In these experiments cell death was quantified flow cytometrically using both an annexin V assay (Apoptosis Detection Kit, R &D Systems, Minneapolis, Minn.) and a TUNEL assay (Apodirect Kit, BD Biosciences Pharmingen, San Diego, Calif.). All of the data was collected and analyzed using a FACS scan flow cytometer (Becton Dickinson, Fullerton, Calif.).
To determine if the mechanism by which our σ2 selective ligands kill EMT-6 cells involves apoptosis, cells incubated with σ2 ligands were assayed by the TUNEL method. […] In these experiments, DNA fragmentation was detected by TUNEL staining and fluorescence microscopy (FIG. 6). Panel A: untreated cells. Panel B: Cells treated for 48 h with WC-II-26 (40 μM). Panel C: Cells treated for 16 h with SV119 (100 μM). Panel D: Cells treated for 16 h with RHM-I-138 (40 μM). […] At the designated times after treatment with WC-II-26, SV119 and RHM-I-138, TUNEL positive cells increased from 2% for the untreated control cells to 46%, 37% and 40%, respectively (FIG. 6B).

σ1 receptor = σ1 receptor (Cavia porcellus, UniProt Q60492); assay: σ1 receptor binding assay, [3H](+)-pentazocine; conditions: as listed in Table 2
Procedure: as §1, §2, §3

[4] = Ki for σ2 (nM), as listed in Table 2
[5] = Ki σ2, inhibiting binding of [3H]DTG or [3H]RHM-1 to rat liver homogenates, mean ± SEM
[6] = Mus musculus, EMT6, 24 h, read-out: EC50 (μM, 24 hours), EMT-6, MTS assay, 24 hours
[7] = Mus musculus, EMT6, 48 h, read-out: EC50 (μM, 48 hours), EMT-6, MTS assay, 48 hours
[8] = read-out: IC50 (μM), MDA-MB-435, 24 hours
[9] = MDA-MB-435, 48 hours, read-out: IC50 (μM, 48 hours)

Chain of σ1 receptor (Q60492 whole entry): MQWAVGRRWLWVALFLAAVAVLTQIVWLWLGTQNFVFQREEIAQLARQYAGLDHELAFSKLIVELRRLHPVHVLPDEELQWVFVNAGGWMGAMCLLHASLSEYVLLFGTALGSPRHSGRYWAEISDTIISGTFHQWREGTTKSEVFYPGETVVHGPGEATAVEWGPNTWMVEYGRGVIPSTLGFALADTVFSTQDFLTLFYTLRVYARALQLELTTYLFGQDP

Row | SMILES | σ1/σ2 Ratio (σ2 receptor) | Ki (σ2 receptor; [4]) [nM] | Ki (σ2 receptor; [5]) [nM] | EC50 (EMT-6 cells [1]; [6]) [µM] | EC50 (EMT-6 cells [1]; [7]) [µM] | EC50 (EMT-6 cells [1]; read-out: EC50 (μM, 48 hours), EMT-6, MTS assay, 48 hours) [µM] | IC50 [2, 8] [µM] | IC50 [2, 9] [µM] | concentration at which the highest level of caspase-3/7 activity was detected (caspase-3/7) [µM] | TUNEL positive cells (flow cytometry) (EMT-6 cells [3]; EMT-6, 40 μM, 16 h) [%] | DNA fragmentation, TUNEL staining in nuclei (fluorescence microscopy) (EMT-6 cells [3]) | Ki (σ1 receptor; read-out: Ki for σ1) [nM] | TUNEL positive cells (flow cytometry) (EMT-6 cells [3]; EMT-6, 40 μM, 48 h) [%] | Ki (σ1 receptor; Ki for σ1 (nM)) [nM] | TUNEL positive cells (flow cytometry) (EMT-6 cells [3]; EMT-6, 100 μM, 16 h) [%]
1 | O[C@@H](CN1C2CCC1CC(c1ccccc1)C2)c1cccc(Br)c1 (some centres unmarked) [RHM-I-138] | 44 | 12.3 | 12.3 | 32.5 ± 3.5 | 16 | 16.5 ± 2.1 | 26.7 ± 4.3 | 19 ± 1.8 | 50 | 40 | positive TUNEL staining | 544 | – | – | –
2 | COc1ccc(C)cc1NC(=O)O[C@H]1C[C@H]2CCC[C@@H](C1)N2Cc1ccc(N(C)C)cc1 [WC-II-26] | 511 | 10.8 | 10.9 | 42.5 ± 3.5 | 12.5 | – | 51.6 ± 6 | 43.2 ± 2 | 80 | – | positive TUNEL staining | – | 46 | 5570 | –
3 | COc1ccc(C)cc1NC(=O)OC1CC2CCCC(C1)N2CCCCCCN (centres unmarked) [SV119] | – | 19.9 | – | 16 ± 1.4 | 11 | – | 36.7 ± 3.3 | 20.6 ± 2.7 | 80 | – | positive TUNEL staining | – | – | 1450 | 37
